Test results taken from patent publication US20230265151A1, “GIP/GLP1 CO-AGONIST COMPOUNDS” (priority 2020, published 2023).
Where two headings read alike, the source gives them in different places. *1 amine or outer side, *2 acyl side, *3 side chain or, on linkers, in order; H or OH if unused. Where a SMILES comes first, the peptide text is derived from it. Side-chain parts run from the residue outwards. [ ]: non-standard residue; d: D form. The star is where a group is joined. αMePhe(2-F) = C[C@](N)(Cc1ccccc1F)C(=O)O; γGlu = O=C(O)[C@H](CCC(=O)[*:2])N[*:1]; C14 diacid = O=C(O)CCCCCCCCCCCCC(=O)*; αMeY = C[C@](N)(Cc1ccc(O)cc1)C(=O)O; 4Pal = N[C@@H](Cc1ccncc1)C(=O)O; αMeL = CC(C)C[C@](C)(N)C(=O)O; Orn = NCCC[C@H](N)C(=O)O; AEEA = NCCOCCOCC(=O)O; Aib = CC(C)(N)C(=O)O

Legend:
Assay type in all cases: cell-based
hGCGR = biological target: T1, hGCGR (Homo sapiens, UniProt P47871); experiment: Functional cAMP formation (HTRF) in HEK-293 clonal cells expressing hGCGR, 0.1% bovine casein, without or with 1.0% human serum albumin; conditions: 37° C., geometric mean
T1 construct: expressed in transfected cells
In short: (§1)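 Cells were stimulated with peptide for 30 min at 37° C, then lysed in buffer carrying cAMP-d2 and anti-cAMP Eu3+-cryptate for a competitive HTRF read after at least 60 min at room temperature. The 665/620 nm ratio was converted to nM cAMP against a standard curve.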

hGIPR = biological target: T2, hGIPR (Homo sapiens, UniProt P48546); experiment: Functional cAMP formation (HTRF) in HEK-293 clonal cells expressing hGIPR, 0.1% bovine casein, without or with 1.0% human serum albumin; conditions: for Emax: percent of maximal response to GIP(1-42)NH2; for EC50: geometric mean, read-out: hGIPR EC50, nM (SEM, n)
T2 construct: expressed in transfected cells
T2 sequence (P48546 22-466): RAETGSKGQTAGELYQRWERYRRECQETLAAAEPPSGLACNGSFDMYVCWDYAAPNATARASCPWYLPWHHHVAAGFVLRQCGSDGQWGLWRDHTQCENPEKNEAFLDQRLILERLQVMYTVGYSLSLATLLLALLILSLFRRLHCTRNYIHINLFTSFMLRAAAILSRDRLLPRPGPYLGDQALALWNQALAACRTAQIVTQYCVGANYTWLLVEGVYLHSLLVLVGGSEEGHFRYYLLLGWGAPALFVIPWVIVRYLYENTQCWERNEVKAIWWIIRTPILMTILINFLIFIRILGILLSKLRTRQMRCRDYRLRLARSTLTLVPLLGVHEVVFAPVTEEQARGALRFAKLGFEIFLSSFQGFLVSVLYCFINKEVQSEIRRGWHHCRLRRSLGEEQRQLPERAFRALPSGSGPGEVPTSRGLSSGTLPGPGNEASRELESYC
In short: as §1

hGLP-1R = hGLP-1R (Homo sapiens, UniProt P43220); experiment: Functional cAMP formation (HTRF) in HEK-293 clonal cells expressing hGLP-1R, 0.1% bovine casein, without or with 1.0% human serum albumin; parameters: expressed in transfected cells; conditions: 37° C.; for EC50: cAMP, 0.1% bovine casein (no human serum albumin), geometric mean; for Emax: percent of maximal response to GLP-1(7-36)NH2, read-out: hGLP-1R Emax, % ± SEM
In short: as §1

[1] = 0.1% bovine casein and 1.0% human serum albumin, read-out: hGCGR EC50, nM (SEM, n)
[2] = cAMP, 0.1% bovine casein (no human serum albumin), read-out: hGCGR EC50, nM (SEM, n)
[3] = HEK293, 0.1% bovine casein and 1.0% human serum albumin, 37° C., read-out: hGIPR Emax, % ± SEM
[4] = cAMP, 37° C., 0.1% bovine casein (no human serum albumin)
[5] = HEK293, 0.1% bovine casein and 1.0% human serum albumin
[6] = HEK293, cAMP, 0.1% bovine casein, arithmetic mean
[7] = read-out: hGLP-1R EC50, nM (SEM, n)
[8] = 0.1% bovine casein and 1.0% human serum albumin, 37° C.

T1 sequence (P47871 26-477): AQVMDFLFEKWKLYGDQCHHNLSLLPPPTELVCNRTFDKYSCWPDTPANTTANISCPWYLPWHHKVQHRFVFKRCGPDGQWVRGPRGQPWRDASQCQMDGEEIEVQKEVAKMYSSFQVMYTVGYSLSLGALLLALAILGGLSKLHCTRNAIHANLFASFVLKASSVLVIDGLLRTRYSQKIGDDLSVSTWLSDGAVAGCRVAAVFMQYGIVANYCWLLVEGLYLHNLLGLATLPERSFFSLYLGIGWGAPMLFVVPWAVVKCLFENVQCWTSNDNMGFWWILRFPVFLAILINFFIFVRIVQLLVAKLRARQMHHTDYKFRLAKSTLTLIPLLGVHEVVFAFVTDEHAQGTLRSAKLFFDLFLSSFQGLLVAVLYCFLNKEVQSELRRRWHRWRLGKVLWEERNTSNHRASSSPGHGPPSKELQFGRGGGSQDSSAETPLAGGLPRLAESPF
hGLP-1R, sequence (P43220 24-463): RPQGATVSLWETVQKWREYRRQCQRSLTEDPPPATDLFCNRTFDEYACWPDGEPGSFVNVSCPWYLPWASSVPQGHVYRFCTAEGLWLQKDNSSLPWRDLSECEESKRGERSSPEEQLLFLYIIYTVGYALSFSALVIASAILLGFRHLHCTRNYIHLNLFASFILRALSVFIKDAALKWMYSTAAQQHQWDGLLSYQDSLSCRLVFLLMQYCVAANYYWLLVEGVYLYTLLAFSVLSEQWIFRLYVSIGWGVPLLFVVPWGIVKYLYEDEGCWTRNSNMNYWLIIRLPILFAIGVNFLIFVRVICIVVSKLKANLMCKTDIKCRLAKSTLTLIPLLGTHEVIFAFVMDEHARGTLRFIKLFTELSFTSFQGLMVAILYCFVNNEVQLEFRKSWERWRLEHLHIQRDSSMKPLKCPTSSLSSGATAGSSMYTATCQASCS

Compound	EC50 (hGCGR; hGCGR EC50, nM (SEM, n), 0.1% bovine casein and 1.0% human serum albumin)	EC50 (hGCGR; hGCGR EC50, nM (SEM, n), cAMP, 0.1% bovine casein (no human serum albumin))	Emax (hGIPR; HEK293, read-out: hGIPR Emax, % ± SEM, cAMP, 37° C., 0.1% bovine casein, arithmetic mean)	EC50 (hGLP-1R; hGLP-1R EC50, nM (SEM, n))	EC50 (hGCGR; [1])	EC50 (hGCGR; [2])	Emax (hGIPR; [3])	EC50 (hGIPR; [4])	Emax (hGLP-1R; [5])	Emax (hGLP-1R; [6])	EC50 (hGLP-1R; [7])	EC50 (hGIPR; [8])	Emax (hGIPR; HEK293, cAMP, 37° C., 0.1% bovine casein, arithmetic mean, read-out: hGIPR Emax, % ± SEM)
CCCC[C@H](NC(=O)[C@H](CC(=O)O)NC(=O)[C@H](CO)NC(=O)[C@@H](NC(=O)[C@](C)(Cc1ccccc1F)NC(=O)[C@@H](NC(=O)CNC(=O)[C@H](CCC(=O)O)NC(=O)C(C)(C)NC(=O)[C@@H](N)Cc1ccc(O)cc1)[C@@H](C)O)[C@@H](C)O)C(=O)N[C@@H](CO)C(=O)N[C@H](C(=O)N[C@@](C)(CC(C)C)C(=O)N[C@@H](CC(C)C)C(=O)N[C@@H](CC(=O)O)C(=O)N[C@@H](CCCN)C(=O)N[C@H](C(=O)N[C@@H](C)C(=O)N[C@@H](CCC(N)=O)C(=O)NC(C)(C)C(=O)N[C@@H](CCC(=O)O)C(=O)N[C@@H](Cc1ccccc1)C(=O)N[C@H](C(=O)N[C@@H](CCCCNC(=O)COCCOCCNC(=O)COCCOCCNC(=O)CC[C@H](NC(=O)CCCCCCCCCOc1ccc(C(=O)O)cc1)C(=O)O)C(=O)N[C@@](C)(Cc1ccc(O)cc1)C(=O)N[C@@H](CC(C)C)C(=O)N[C@H](C(=O)N[C@@H](CCCCNC(=O)COCCOCCNC(=O)COCCOCCNC(=O)CC[C@H](NC(=O)CCCCCCCCCOc1ccc(C(=O)O)cc1)C(=O)O)C(=O)NCC(=O)NCC(=O)N1CCC[C@H]1C(=O)N[C@@H](CO)C(=O)N[C@@H](CO)C(=O)NCC(=O)N[C@@H](C)C(=O)N1CCC[C@H]1C(=O)N1CCC[C@H]1C(=O)N1CCC[C@H]1C(=O)N[C@@H](CO)C(N)=O)[C@@H](C)CC)[C@@H](C)CC)[C@@H](C)CC)[C@@H](C)CC [Example 314]	> 9950 nM	> 9950 nM	100%	0.673 nM									
CC[C@H](C)[C@H](NC(=O)[C@H](CCCN)NC(=O)[C@H](CC(=O)O)NC(=O)[C@H](CC(C)C)NC(=O)[C@](C)(CC(C)C)NC(=O)[C@@H](NC(=O)C(C)(C)NC(=O)[C@H](Cc1ccncc1)NC(=O)[C@H](CC(=O)O)NC(=O)[C@H](CO)NC(=O)[C@@H](NC(=O)[C@](C)(Cc1ccccc1F)NC(=O)[C@@H](NC(=O)CNC(=O)[C@H](CCC(=O)O)NC(=O)C(C)(C)NC(=O)[C@@H](N)Cc1ccc(O)cc1)[C@@H](C)O)[C@@H](C)O)[C@@H](C)CC)C(=O)N[C@@H](C)C(=O)N[C@@H](CCC(N)=O)C(=O)NC(C)(C)C(=O)N[C@@H](CCCN)C(=O)N[C@@H](Cc1ccccc1)C(=O)N[C@H](C(=O)N[C@@H](CCCCNC(=O)COCCOCCNC(=O)COCCOCCNC(=O)CC[C@H](NC(=O)CCCCCCCCCCCCC(=O)O)C(=O)O)C(=O)N[C@@](C)(Cc1ccc(O)cc1)C(=O)N[C@@H](CC(C)C)C(=O)N[C@H](C(=O)N[C@@H](CCCCNC(=O)COCCOCCNC(=O)COCCOCCNC(=O)CC[C@H](NC(=O)CCCCCCCCCCCCC(=O)O)C(=O)O)C(=O)NCC(=O)NCC(=O)N1CCC[C@H]1C(=O)N[C@@H](CO)C(=O)N[C@@H](CO)C(=O)NCC(=O)N[C@@H](C)C(=O)N1CCC[C@H]1C(=O)N1CCC[C@H]1C(=O)N1CCC[C@H]1C(=O)N[C@@H](CO)C(N)=O)[C@@H](C)CC)[C@@H](C)CC [Example 315] (H-Y[Aib]EGT[αMePhe(2-F)]TSD[4Pal][Aib]I[αMeL]LD[Orn]IAQ[Aib][Orn]FIK([AEEA-AEEA-γGlu-C14 diacid])[αMeY]LIK([AEEA-AEEA-γGlu-C14 diacid])GGPSSGAPPPS-NH2)					> 9950 nM	> 9950 nM	89.2%	0.0245 nM	93.5%	98.9%	0.376 nM		
CC[C@H](C)[C@H](NC(=O)[C@H](CCCN)NC(=O)[C@H](CC(=O)O)NC(=O)[C@H](CC(C)C)NC(=O)[C@](C)(CC(C)C)NC(=O)[C@@H](NC(=O)C(C)(C)NC(=O)[C@H](Cc1ccc(O)cc1)NC(=O)[C@H](CC(=O)O)NC(=O)[C@H](CO)NC(=O)[C@@H](NC(=O)[C@](C)(Cc1ccccc1F)NC(=O)[C@@H](NC(=O)CNC(=O)[C@H](CCC(=O)O)NC(=O)C(C)(C)NC(=O)[C@@H](N)Cc1ccc(O)cc1)[C@@H](C)O)[C@@H](C)O)[C@@H](C)CC)C(=O)N[C@@H](C)C(=O)N[C@@H](CCC(N)=O)C(=O)NC(C)(C)C(=O)N[C@@H](CCCN)C(=O)N[C@@H](Cc1ccccc1)C(=O)N[C@H](C(=O)N[C@@H](CCCCNC(=O)COCCOCCNC(=O)COCCOCCNC(=O)CC[C@H](NC(=O)CCCCCCCCCCCCC(=O)O)C(=O)O)C(=O)N[C@@](C)(Cc1ccc(O)cc1)C(=O)N[C@@H](CC(C)C)C(=O)N[C@H](C(=O)N[C@@H](CCCCNC(=O)COCCOCCNC(=O)COCCOCCNC(=O)CC[C@H](NC(=O)CCCCCCCCCCCCC(=O)O)C(=O)O)C(=O)NCC(=O)NCC(=O)N1CCC[C@H]1C(=O)N[C@@H](CO)C(=O)N[C@@H](CO)C(=O)NCC(=O)N[C@@H](C)C(=O)N1CCC[C@H]1C(=O)N1CCC[C@H]1C(=O)N1CCC[C@H]1C(=O)N[C@@H](CO)C(N)=O)[C@@H](C)CC)[C@@H](C)CC [Example 316]					> 9950 nM	> 9950 nM		0.0316 nM	113%	109%	0.571 nM	1.11 nM	
CC[C@H](C)[C@H](NC(=O)[C@H](CCCN)NC(=O)[C@H](CC(=O)O)NC(=O)[C@H](CC(C)C)NC(=O)[C@](C)(CC(C)C)NC(=O)[C@@H](NC(=O)C(C)(C)NC(=O)[C@@H](NC(=O)[C@H](CC(=O)O)NC(=O)[C@H](CO)NC(=O)[C@@H](NC(=O)[C@](C)(Cc1ccccc1F)NC(=O)[C@@H](NC(=O)CNC(=O)[C@H](CCC(=O)O)NC(=O)C(C)(C)NC(=O)[C@@H](N)Cc1ccc(O)cc1)[C@@H](C)O)[C@@H](C)O)C(C)C)[C@@H](C)CC)C(=O)N[C@@H](C)C(=O)N[C@@H](CCC(N)=O)C(=O)NC(C)(C)C(=O)N[C@@H](CCCN)C(=O)N[C@@H](Cc1ccccc1)C(=O)N[C@H](C(=O)N[C@@H](CCCCNC(=O)COCCOCCNC(=O)COCCOCCNC(=O)CC[C@H](NC(=O)CCCCCCCCCCCCC(=O)O)C(=O)O)C(=O)N[C@@](C)(Cc1ccc(O)cc1)C(=O)N[C@@H](CC(C)C)C(=O)N[C@H](C(=O)N[C@@H](CCCCNC(=O)COCCOCCNC(=O)COCCOCCNC(=O)CC[C@H](NC(=O)CCCCCCCCCCCCC(=O)O)C(=O)O)C(=O)NCC(=O)NCC(=O)N1CCC[C@H]1C(=O)N[C@@H](CO)C(=O)N[C@@H](CO)C(=O)NCC(=O)N[C@@H](C)C(=O)N1CCC[C@H]1C(=O)N1CCC[C@H]1C(=O)N1CCC[C@H]1C(=O)N[C@@H](CO)C(N)=O)[C@@H](C)CC)[C@@H](C)CC [Example 317]					> 9950 nM	> 9950 nM	84.4%	0.0587 nM	98.1%		1.34 nM	2.03 nM	112%
CC[C@H](C)[C@H](NC(=O)[C@H](CC(C)C)NC(=O)[C@](C)(Cc1ccc(O)cc1)NC(=O)[C@@H](CCC(=O)O)NC(=O)[C@@H](NC(=O)[C@H](Cc1ccccc1)NC(=O)[C@H](CCCCNC(=O)COCCOCCNC(=O)COCCOCCNC(=O)CC[C@H](NC(=O)CCCCCCCCCCCCC(=O)O)C(=O)O)NC(=O)C(C)(C)NC(=O)[C@H](CCC(N)=O)NC(=O)[C@H](C)NC(=O)[C@H](CCCCNC(=O)COCCOCCNC(=O)COCCOCCNC(=O)CC[C@H](NC(=O)CCCCCCCCCCCCC(=O)O)C(=O)O)NC(=O)[C@H](CCCN)NC(=O)[C@H](CC(=O)O)NC(=O)[C@H](CC(C)C)NC(=O)[C@](C)(CC(C)C)NC(=O)[C@@H](NC(=O)C(C)(C)NC(=O)[C@@H](NC(=O)[C@H](CC(=O)O)NC(=O)[C@H](CO)NC(=O)[C@@H](NC(=O)[C@](C)(Cc1ccccc1F)NC(=O)[C@@H](NC(=O)CNC(=O)[C@H](CCC(=O)O)NC(=O)C(C)(C)NC(=O)[C@@H](N)Cc1ccc(O)cc1)[C@@H](C)O)[C@@H](C)O)C(C)C)[C@@H](C)CC)[C@@H](C)CC)C(=O)N[C@@H](CCC(=O)O)C(=O)NCC(=O)NCC(=O)N1CCC[C@H]1C(=O)N[C@@H](CO)C(=O)N[C@@H](CO)C(=O)NCC(=O)N[C@@H](C)C(=O)N1CCC[C@H]1C(=O)N1CCC[C@H]1C(=O)N1CCC[C@H]1C(=O)N[C@@H](CO)C(N)=O [Example 318]					> 9950 nM	> 9950 nM	91.4%	0.0402 nM			0.219 nM		
